# Results taken from publication PMC2775811 (The Journal of neuroscience : the official journal of the …, 2009).
# Key:
# Hsp70 = Hsp70 (Homo sapiens, UniProt P0DMV8); test: malachite green ATPase assay, 8-point dose dependence; type: biochemical
# Hsc70 = Hsc70 (Homo sapiens, UniProt P11142); test: […]-1H HSQC-TROSY NMR titration, […]-labelled apo-Hsc70; type: binding
Compound,IC50 (Hsp70),Kd (Hsc70)
"CNc1ccc2nc3ccc(N)cc3[s+]c2c1 [AC, azure C]",11 µM,
"CN(C)c1ccc2nc3ccc(=[N+](C)C)cc-3sc2c1 [MB, methylene blue]",83 µM,~1 µM
"O=c1c(O)c(-c2cc(O)c(O)c(O)c2)oc2cc(O)cc(O)c12 [MY, myricetin]",12 µM,
